Paper PMC8767159, “Multiparameter Optimization of Trypanocidal Cruzain Inhibitors With In Vivo Activity and Favorable Pharmacokinetics” (Frontiers in Pharmacology, 2022)
Where two headings read alike, the source gives them in different places.

Legend:
[1] = Cytotoxicity MTS assay in HFF-1 fibroblasts; assay type: cell-based; conditions: human HFF-1 fibroblasts
Protocol: The synthesized compounds were evaluated for their cytotoxicity against HFF-1 cells using the MTS assay (Promega, Madison, WI) ([Barltrop et al., 1991]) as previously described ([Ferreira et al., 2019]). HFF-1 fibroblasts were plated at 2 × 10^3/well in 96-well culture plates in RPMI 1640 without phenol red enriched with 10% FCS and incubated overnight at 37°C and 5% CO2. Next, 7 concentrations (0.1–100 µM) of the compounds were added in 3-fold serial dilutions, each concentration in triplicate, and the plates were incubated for 72 h at 37°C and 5% CO2. Next, 20 µl of MTS was added to each well, and the plates were incubated for an additional 4 h at 37°C and 5% CO2. The absorbance was measured at 490 nm using a spectrophotometer, and the data were transferred to SigmaPlot 10.0 (Systat Software Inc., Erkrath, Germany) to determine the IC50 values. Doxorubicin (Sigma–Aldrich) was used as a positive control, and untreated wells (100% growth) were used as negative controls in all plates. All compounds were tested in two independent assays.

[2] = In vitro metabolic stability in human liver microsomes; assay type: in vitro ADME; conditions: for CLint scaled at 5 µM: human, liver microsomes
Summary of the method: (§1)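 Compounds incubated at 37°C with mouse or human liver microsomes (0.25 mg/ml) in potassium phosphate buffer with NADPH; samples quenched in ACN/MeOH at 0, 5, 10, 15, 20 and 30 min. Parent remaining by LC-MS/MS relative to 0 min; T½ = ln(2)/k, CLint = k*1000/0.25 (μL/min/mg).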

[3] = In vitro metabolic stability in mouse liver microsomes; assay type: in vitro ADME; conditions: mouse, liver microsomes
Summary of the method: as §1

[4] = In vivo pharmacokinetics in male CD1 mice; design: species or system mouse; conditions: for CLpu: plasma clearance corrected for the fraction unbound; for clearance: plasma clearance, read-out: CLp (L/h/kg) IV (converted); for C0 / AUC / half-life / Vd / Cmax / Tmax / bioavailability: plasma; for bioavailability: oral bioavailability
Protocol: The in vivo pharmacokinetic profiles of the compounds were determined using male CD1 mice weighing […] ([Davies and Morris, 1993]; [Liu and Jia, 2007]). The compounds were administered in a single dose orally (0.5 mg/kg) and intravenously (0.5 mg/kg). Stock solutions of the compounds in DMSO were diluted in Tween 80, PEG-400, and D5W (5% dextrose in water) at a ratio of 2:5:20:73 (v/v). The injection volume was 10 ml/kg. The remaining plasma concentration was monitored over time by LC-MS/MS by collecting blood samples (40 μl) at 10, 25, and 50 min and 1, 3, 6, 9, 12, and 24 h after administration of the compound.
For the biotransformation experiments and analysis of metabolites in microsomes, an Ultra-High-Pressure Liquid Chromatography instrument (UHPLC, Thermo Accela, Waltham, MA) ([Spaggiari et al., 2014]) connected to an automatic sample injector and a 1250 series pump was used. The UHPLC system was connected to a Thermo Fisher (Waltham, MA) LTQ Orbitrap mass spectrometer. For all other analyses, an AB Sciex Triple Quad 5500 coupled to a UHPLC equipped with a UV 1290 diode detector (Agilent Technologies, Santa Clara, CA) and a CTC PAL self-collecting system (LEAP Technologies, Carrboro, NC) was used. Q1 MS positive ion mode (300–500 Da) was used to detect the ions of the parent compounds. The UV detector was operated in spectral mode (250–280 nm). A Hypersil Gold C18 (2.1 mm × 100 mm, 1.9 µm, Thermo Fisher) HPLC column was used. The mobile phases were solvent A (0.1% formic acid in water) and solvent B (0.1% formic acid in ACN). The flow was adjusted to 0.55 ml/min, and the injection volume was adjusted to […]. The gradient started with 1% solvent B for 0.4 min, reached 40% (solvent B) in 2.3 min and 95% (solvent B) in 0.67 min, was maintained for 0.5 min, and returned to the initial condition of 1%. This condition was maintained for 1 min before injection of the next sample. The peak area ratio (peak area of the test compounds/peak area of the control compounds) was converted to the percentage of remaining compound, with the 0 min time point ratio set to 100%. T½ and CLint were calculated from the percentage of remaining compound versus the incubation time. From the resulting function, the slope (k) was determined. The equations T1/2 (min) = ln(2)/k and CLint in vitro (μL/min/mg) = k*1000/0.25 were used to determine T½ and CLint.

[5] = Table S5, CLint/fu, read-out: CLint_u (L/h/kg) Human (converted)
[6] = Table S5, read-out: CLint (L/h/kg) Human (converted)
[7] = Table S5, CLint/fu, read-out: CLint_u (L/h/kg) Mouse (converted)
[8] = Table S5, read-out: CLint (L/h/kg) Mouse (converted)
[9] = male, CD1, mouse, 0.5 mg/kg, Table S6, IV, mice
[10] = male, CD1, mouse, 0.5 mg/kg, Table S6, IV, mice, read-out: AUC (ng*h/mL) IV
[11] = male, CD1, mouse, 0.5 mg/kg, Table S6, IV, mice, read-out: T1/2(h) IV (converted)
[12] = male, CD1, mouse, 0.5 mg/kg, Table S6, IV, mice, read-out: VSS (L/kg) IV
[13] = male, CD1, mouse, 0.5 mg/kg, Table S6, PO, mice
[14] = male, CD1, mouse, 0.5 mg/kg, Table S6, PO, mice, read-out: AUC (ng*h/mL) PO
[15] = male, CD1, mouse, 0.5 mg/kg, Table S6, PO, mice, read-out: T1/2 (h) PO (converted)
[16] = male, CD1, mouse, 0.5 mg/kg, Table S6, mice
[17] = Table 5, CLint/fu, read-out: CLint_u (L/h/kg) human (converted)
[18] = Table 5, read-out: CLint (L/h/kg) human (converted)
[19] = Table 5, CLint/fu, read-out: CLint_u (L/h/kg) mouse (converted)
[20] = Table 5, read-out: CLint (L/h/kg) mouse (converted)
[21] = Table 6, PO 0.5 mg/kg, male CD1 mice
[22] = mouse, Table 6, IV 0.5 mg/kg, male CD1 mice

## CC(=O)Nc1ccc(OCC(=O)NCCc2nc3ccccc3[nH]2)cc1 [Compound 2]
[1]
  IC50 at 72 h: > 100 µM
[2]; [5]
  CLint scaled at 5 µM: < 1.5 L/h/kg
[2]; [6]
  CLint scaled at 5 µM: < 1.5 L/h/kg
[3]; [7]
  CLint scaled at 5 µM: < 4.43 L/h/kg
[3]; [8]
  CLint scaled at 5 µM: < 4.43 L/h/kg
[4]; Table S6
  CLpu: 69.3 mL/min/kg
[4]; [9]
  clearance: 2.03 L/h/kg
  C0: 1040 ng/mL
[4]; [10]
  AUC: 506 ng·h/mL
[4]; [11]
  half-life: 0.63 h
[4]; [12]
  Vd: 1.03 L/kg
[4]; [13]
  Cmax: 54 ng/mL
  Tmax: 49.8 min
[4]; [14]
  AUC: 125 ng·h/mL
[4]; [15]
  half-life: 1.21 h
[4]; [16]
  bioavailability: 25%

## O=C(Cn1ccnc1[N+](=O)[O-])NCc1ccccc1 [BZ, benznidazole, reference compound]
[1]
  IC50 at 72 h: > 100 µM
[2]; [17]
  CLint scaled at 5 µM: 1.5 L/h/kg
[2]; [18]
  CLint scaled at 5 µM: 1.5 L/h/kg
[2]; [5]
  CLint scaled at 5 µM: 1.5 L/h/kg
[2]; [6]
  CLint scaled at 5 µM: 1.5 L/h/kg
[3]; [19]
  CLint scaled at 5 µM: 4.4 L/h/kg
[3]; [20]
  CLint scaled at 5 µM: 4.4 L/h/kg
[3]; [7]
  CLint scaled at 5 µM: 4.43 L/h/kg
[3]; [8]
  CLint scaled at 5 µM: 4.43 L/h/kg
[4]; [21]
  AUC (ng*h/ml) PO: 1.040 ng·h/mL
  T1/2 (h) PO: 1.5 h
[4]; Table 6, IV
  CLpu: 16.7 mL/min/kg
[4]; Table S6
  CLpu: 16.7 mL/min/kg
[4]; [9]
  clearance: 1 L/h/kg
  C0: 961 ng/mL
[4]; [10]
  AUC: 1020 ng·h/mL
[4]; [11]
  half-life: 0.8 h
[4]; [12]
  Vd: 1.1 L/kg
[4]; [13]
  Cmax: 404 ng/mL
  Tmax: 24 min
[4]; [14]
  AUC: 1040 ng·h/mL
[4]; [15]
  half-life: 1.5 h
[4]; [16]
  bioavailability: 90%

## CC(=O)Nc1cccc(OCC(=O)NCCc2nc3ccccc3[nH]2)c1 [Compound 3]
[1]
  IC50 at 72 h: > 100 µM
[2]; Table S5, CLint/fu
  CLint_u (L/h/kg) Human: 6.90 L/h/kg
[2]; [5]
  CLint scaled at 5 µM: 6.9 L/h/kg
[2]; [6]
  CLint scaled at 5 µM: 6.9 L/h/kg
[3]; [7]
  CLint scaled at 5 µM: 10.6 L/h/kg
[3]; [8]
  CLint scaled at 5 µM: 10.6 L/h/kg
[4]; Table S6
  CLpu: 242.5 mL/min/kg
[4]; [9]
  clearance: 2.31 L/h/kg
  C0: 12000 ng/mL
[4]; [10]
  AUC: 916 ng·h/mL
[4]; [11]
  half-life: 0.35 h
[4]; [12]
  Vd: 0.45 L/kg
[4]; [13]
  Cmax: 9 ng/mL
  Tmax: 26.4 min
[4]; [14]
  AUC: 9.91 ng·h/mL
[4]; [16]
  bioavailability: 1%

## O=C(COc1ccccc1Br)NCCc1nc2ccccc2[nH]1 [Compound 18]
[1]
  IC50 at 72 h: > 100 µM
[2]; [17]
  CLint scaled at 5 µM: 16 L/h/kg
[2]; [18]
  CLint scaled at 5 µM: 9.2 L/h/kg
[3]; [19]
  CLint scaled at 5 µM: 334 L/h/kg
[3]; [20]
  CLint scaled at 5 µM: 191 L/h/kg
[4]; Table 6, IV
  CLpu: 1728 mL/min/kg
[4]; mouse, 0.5 mg/kg, Table 6, male CD1 mice
  bioavailability: 1.2%
[4]; [22]
  C0: 283 ng/mL
  clearance: 3.2 L/h/kg
[4]; mouse, Table 6, IV 0.5 mg/kg, male CD1 mice, read-out: AUC (ng*h/ml) IV
  AUC: 84 ng·h/mL
[4]; mouse, Table 6, IV 0.5 mg/kg, male CD1 mice, read-out: T1/2 (h) IV (converted)
  half-life: 0.2 h
[4]; mouse, Table 6, IV 0.5 mg/kg, male CD1 mice, read-out: V SS (L/kg) IV
  Vd: 1.8 L/kg
[4]; mouse, Table 6, PO 0.5 mg/kg, male CD1 mice
  Tmax: 18 min
[4]; mouse, Table 6, PO 0.5 mg/kg, male CD1 mice, read-out: AUC (ng*h/ml) PO
  AUC: 1 ng·h/mL

## O=C(COc1ccc2cc(O)ccc2c1)NCCc1nc2ccccc2[nH]1 [Compound 10]
[1]
  IC50 at 72 h: > 100 µM
[2]; [5]
  CLint scaled at 5 µM: 8.15 L/h/kg
[2]; [6]
  CLint scaled at 5 µM: 6.66 L/h/kg
[3]; [7]
  CLint scaled at 5 µM: 32.3 L/h/kg
[3]; [8]
  CLint scaled at 5 µM: 26.4 L/h/kg
[4]; Table S6
  CLpu: 314 mL/min/kg
[4]; [9]
  clearance: 6.52 L/h/kg
  C0: 660 ng/mL
[4]; [10]
  AUC: 156 ng·h/mL
[4]; [11]
  half-life: 0.14 h
[4]; [12]
  Vd: 1.21 L/kg
[4]; [16]
  bioavailability: 0%
